This series can be described thus: xn = mol fraction of the nth substance listed. The following applies: 298.15 K, 101.1 kPa, Liquid; for viscosity: Falling or rolling sphere viscometry; for mass density: Vibrating tube method.

± gives the expanded uncertainty stated by the source.

As for `NC(N)=O` [urea] + C[N+](C)(C)CCO.[Cl-], where the note is “x2 = 0.333”, the viscosity is on record as 1348.3 ± 320 mPa·s and the mass density is 1210.4 ± 16 kg/m3.

Turning to `C[N+](C)(C)CCO.[Cl-]` [choline chloride] + OCCO, under “x1 = 0.333”, the viscosity is recorded as 39.45 ± 8.3 mPa·s and the mass density was 1120.4 ± 15 kg/m3.

Consider `C[N+](C)(C)CCO.[Cl-]` [choline chloride] + OCC(O)CO, for which, for the setting “x1 = 0.333”, the viscosity worked out at 317.14 ± 69 mPa·s and the mass density was 1191.3 ± 16 kg/m3.

The term viscosity denotes the internal friction of a fluid under shear. Usually mass density stands for mass per unit of volume.

Source of the values: the NIST ThermoML archive (doi:10.1016/j.jct.2019.01.018).
